Test results reported in the NIST ThermoML archive (doi:10.1021/acs.jced.8b00132).
“And” between values parts separate entries of the source, which are not always exact repeats. Identical values can stand only once. Numbers after ± are expanded uncertainties.

Conditions: transient hot wire

O=C(C(F)(F)C(F)(F)F)C(F)(C(F)(F)F)C(F)(F)F [dodecafluoro-2-methylpentan-3-one]
Conditions | thermal conductivity
301.59 K, 15869 kPa, Liquid | 0.06313 ± 0.0013 W/m/K
301.6 K, 48023 kPa, Liquid | 0.07341 ± 0.0015 W/m/K
301.6 K, 48035 kPa, Liquid | 0.07339 ± 0.0015 W/m/K
301.61 K, 9935 kPa, Liquid | 0.06132 ± 0.0013 W/m/K
301.61 K, 9939 kPa, Liquid | 0.0613 ± 0.0013 W/m/K
301.63 K, 185 kPa, Liquid | 0.05695 ± 0.0012 W/m/K
301.63 K, 186 kPa, Liquid | 0.05695 ± 0.0012 W/m/K
301.65 K, 38555 kPa, Liquid | 0.07081 ± 0.0015 W/m/K
301.65 K, 38556 kPa, Liquid | 0.07081 ± 0.0015 W/m/K
301.66 K, 4510 kPa, Liquid | 0.05903 ± 0.0012 W/m/K
301.67 K, 181 kPa, Liquid | 0.05696 ± 0.0012 W/m/K and 0.05695 ± 0.0012 W/m/K
301.67 K, 4513 kPa, Liquid | 0.05926 ± 0.0012 W/m/K
301.68 K, 68591 kPa, Liquid | 0.07706 ± 0.0016 W/m/K
301.68 K, 68604 kPa, Liquid | 0.07747 ± 0.0016 W/m/K
301.69 K, 29956 kPa, Liquid | 0.06826 ± 0.0014 W/m/K
301.69 K, 29958 kPa, Liquid | 0.06828 ± 0.0014 W/m/K
301.69 K, 68130 kPa, Liquid | 0.07843 ± 0.0016 W/m/K
301.7 K, 58476 kPa, Liquid | 0.07534 ± 0.0015 W/m/K
301.7 K, 68201 kPa, Liquid | 0.07832 ± 0.0016 W/m/K
301.71 K, 22368 kPa, Liquid | 0.06584 ± 0.0014 W/m/K and 0.06583 ± 0.0014 W/m/K
301.71 K, 48170 kPa, Liquid | 0.07234 ± 0.0015 W/m/K
301.71 K, 58480 kPa, Liquid | 0.07563 ± 0.0015 W/m/K
301.72 K, 15988 kPa, Liquid | 0.06294 ± 0.0013 W/m/K
301.72 K, 15989 kPa, Liquid | 0.0629 ± 0.0013 W/m/K
301.72 K, 48184 kPa, Liquid | 0.07274 ± 0.0015 W/m/K
301.73 K, 38646 kPa, Liquid | 0.06956 ± 0.0014 W/m/K
301.73 K, 38651 kPa, Liquid | 0.0696 ± 0.0014 W/m/K
301.75 K, 9736 kPa, Liquid | 0.06053 ± 0.0013 W/m/K
301.75 K, 59377 kPa, Liquid | 0.07624 ± 0.0016 W/m/K
301.75 K, 59380 kPa, Liquid | 0.07624 ± 0.0016 W/m/K
301.75 K, 68800 kPa, Liquid | 0.07711 ± 0.0016 W/m/K
301.76 K, 9735 kPa, Liquid | 0.06062 ± 0.0013 W/m/K
301.76 K, 15639 kPa, Liquid | 0.06344 ± 0.0013 W/m/K
301.76 K, 29978 kPa, Liquid | 0.06731 ± 0.0014 W/m/K
301.76 K, 68808 kPa, Liquid | 0.07639 ± 0.0016 W/m/K
301.77 K, 15644 kPa, Liquid | 0.06346 ± 0.0013 W/m/K
301.78 K, 121 kPa, Liquid | 0.05702 ± 0.0012 W/m/K and 0.05701 ± 0.0012 W/m/K
301.79 K, 4434 kPa, Liquid | 0.05801 ± 0.0012 W/m/K
301.79 K, 4440 kPa, Liquid | 0.05822 ± 0.0012 W/m/K
301.79 K, 22438 kPa, Liquid | 0.06507 ± 0.0013 W/m/K
301.79 K, 22452 kPa, Liquid | 0.06502 ± 0.0013 W/m/K
301.82 K, 102 kPa, Liquid | 0.05674 ± 0.0012 W/m/K
301.82 K, 48012 kPa, Liquid | 0.07336 ± 0.0015 W/m/K
301.82 K, 48021 kPa, Liquid | 0.07338 ± 0.0015 W/m/K
301.83 K, 95 kPa, Liquid | 0.05685 ± 0.0012 W/m/K
301.85 K, 9941 kPa, Liquid | 0.06128 ± 0.0013 W/m/K
301.85 K, 9948 kPa, Liquid | 0.06126 ± 0.0013 W/m/K
301.87 K, 38549 kPa, Liquid | 0.07078 ± 0.0015 W/m/K
301.87 K, 38555 kPa, Liquid | 0.07047 ± 0.0014 W/m/K
301.88 K, 34 kPa, Gas | 0.01211 ± 0.0023 W/m/K
301.88 K, 35 kPa, Gas | 0.01203 ± 0.0028 W/m/K
301.9 K, 185 kPa, Liquid | 0.05689 ± 0.0012 W/m/K
301.91 K, 185 kPa, Liquid | 0.05664 ± 0.0012 W/m/K
301.91 K, 4509 kPa, Liquid | 0.059 ± 0.0012 W/m/K
301.91 K, 29959 kPa, Liquid | 0.06823 ± 0.0014 W/m/K
301.91 K, 67990 kPa, Liquid | 0.07824 ± 0.0016 W/m/K
301.91 K, 68063 kPa, Liquid | 0.07829 ± 0.0016 W/m/K
301.92 K, 29958 kPa, Liquid | 0.06824 ± 0.0014 W/m/K
301.93 K, 181 kPa, Liquid | 0.05689 ± 0.0012 W/m/K and 0.05687 ± 0.0012 W/m/K
301.94 K, 4507 kPa, Liquid | 0.05898 ± 0.0012 W/m/K
301.95 K, 22372 kPa, Liquid | 0.06576 ± 0.0014 W/m/K
301.95 K, 22377 kPa, Liquid | 0.06549 ± 0.0014 W/m/K
301.97 K, 59371 kPa, Liquid | 0.07623 ± 0.0016 W/m/K
301.97 K, 59377 kPa, Liquid | 0.07622 ± 0.0016 W/m/K
302.01 K, 15644 kPa, Liquid | 0.06317 ± 0.0013 W/m/K
302.01 K, 15646 kPa, Liquid | 0.06342 ± 0.0013 W/m/K
302.03 K, 121 kPa, Liquid | 0.05696 ± 0.0012 W/m/K
302.04 K, 15871 kPa, Liquid | 0.0631 ± 0.0013 W/m/K
302.04 K, 15874 kPa, Liquid | 0.0632 ± 0.0013 W/m/K
302.04 K, 48005 kPa, Liquid | 0.07334 ± 0.0015 W/m/K
302.05 K, 48000 kPa, Liquid | 0.07334 ± 0.0015 W/m/K
302.09 K, 9944 kPa, Liquid | 0.06121 ± 0.0013 W/m/K
302.09 K, 68569 kPa, Liquid | 0.07801 ± 0.0016 W/m/K
302.09 K, 68583 kPa, Liquid | 0.07807 ± 0.0016 W/m/K
302.1 K, 9951 kPa, Liquid | 0.06119 ± 0.0013 W/m/K
302.1 K, 38544 kPa, Liquid | 0.07073 ± 0.0015 W/m/K
302.11 K, 38546 kPa, Liquid | 0.07074 ± 0.0015 W/m/K
302.13 K, 58450 kPa, Liquid | 0.07511 ± 0.0015 W/m/K
302.13 K, 58453 kPa, Liquid | 0.07504 ± 0.0015 W/m/K
302.15 K, 15982 kPa, Liquid | 0.0631 ± 0.0013 W/m/K
302.15 K, 29954 kPa, Liquid | 0.06819 ± 0.0014 W/m/K and 0.0682 ± 0.0014 W/m/K
302.15 K, 48164 kPa, Liquid | 0.07319 ± 0.0015 W/m/K
302.16 K, 15975 kPa, Liquid | 0.06301 ± 0.0013 W/m/K
302.16 K, 48161 kPa, Liquid | 0.07327 ± 0.0015 W/m/K
